In patent US20140066410A1, “INHIBITORS OF BROMODOMAINS AS MODULATORS OF GENE EXPRESSION” (ICAHN SCHOOL OF MEDICINE AT MOUNT SINAI, priority 2011, published 2014):
Like-named read-outs stand apart in the source and are kept apart here. Each block holds one molecule with its values, some of them ahead of it.

What was measured:
[1] = tested on: p53; assay: p21 luciferase assay (p53 inhibition) in U20S cells upon doxorubicin; assay type: cell-based; conditions: for inhibition at 50 µM / % Inhibition (p53 inhibition, p21 luciferase activity): compounds at 50 μM, doxorubicin-treated U20S cells; for Ability to inhibit p53-dependent p21 luciferase activity / p21 expression (SAR, words): compared with lead / ortho-methyl analogs
Protocol: U20S Cells were transfected with p21 luciferase (1 μg) and renilla luciferase (100 ng) vectors in 6 well plate format using Fugene 6 (Roche). Briefly, total of 1.1 micrograms of vector was incubated with […] of Fugene 6 reagent for 30 min. After 3-4 hours of transfection, cell were treated with compounds for overnight, and then exposed to 300 nanogram of doxorubicin for next 24 hours. In these experiments, DMSO, transfected cells with empty vector and cell without doxorubicin were used as controls. DMSO concentration is maintained at 0.01%. Transfected cells with doxorubicin treatment were used as positive control. The luciferase activity was estimated by following the manufacturer's instruction (Promega) in a luminometer. […] The inhibitory activity (IC50) of a small molecule on p21 luciferase activity was obtained from the average of three biological replicates using PRISM software.

[2] = target: BRD4-1 (Homo sapiens, UniProt O60885); assay: Bromodomain binding affinity (tryptophan fluorescence binding assay)
Protocol: (§1) Monitoring change of intrinsic tryptophan fluorescence of a protein induced by ligand binding can be used to determine ligand binding affinity (KD). This assay was used to assess ligand binding to the CBP BRD and ischemin binding to the BRDs from other transcription proteins as follows. The chemical ligands were prepared at 500-850 μM in the PBS buffer. Their serial dilutions by a factor of 1.5 in a 384-wells black plate were carried out using a Tecan EVO200 liquid handler down to a concentration of 0.5 nM. Protein was added to the compounds to a final concentration in each well of 5 μM. Tryptophan fluorescence of the protein was measured (with excitation set at 280 nm, emission at 350 nm) on a Tecan Safire2 reader. Inner filter correction was introduced to take into account the possible intrinsic fluorescence of the compound. […] KD was calculated based on the curve fitting.

[3] = target: BRD4-2 (Homo sapiens, UniProt O60885); assay: as above
Protocol: as §1

[4] = tested on: melanoma cells; assay: Melanoma cell proliferation in vitro; assay type: cell-based; conditions: FIG. 6, FIG. 7
[5] = tested on: U20S cells; assay: BRDU incorporation / cell cycle analysis; assay type: cell-based; conditions: for Prevention of doxorubicin-induced cell cycle arrest (decrease of BRDU incorporation): compound 50 μM, doxorubicin 5 μM, U20S cells
Protocol: BRDU incorporation assay for cell cycle evaluation was performed in 96 well plates using calorimetric based kit from Calbiochem (Cat# QiA58). Hundred microliter of 1×10^5/ml cells were plated in DMEM media (Mediatech) with 10% fetal bovine serum (FBS). After 12 hours cells were treated with compounds ischemin and MS 119 (50 μM) with or without doxorubicin treatment (5 μM). The controls were DMSO and untreated cells. BRDU was added for 24 hours treatment. After 24 hours cells were fixed and treated with anti-BRDU antibody. After washings, the wells were incubated with peroxidase. After final wash, the color was developed using TMB as substrate and the reaction was stopped with stop solution and optical density was estimated at 450 nm.
DNA damage induced by doxorubicin leads to p53 stimulated cellular responses including cell cycle arrest, damage repair, and apoptosis. To determine the effect of ischemin on dividing U20S cells, U20S cells were treated with 5-bromo-2-deoxyuridine (BRDU) and the incorporated BRDU during in DNA synthesis was measured using an ELISA assay.

[6] = target: T1, PCAF (Homo sapiens, UniProt Q92831); assay: Bromodomain binding affinity (tryptophan fluorescence binding assay)
T1 sequence (Q92831 723-827 limits assumed): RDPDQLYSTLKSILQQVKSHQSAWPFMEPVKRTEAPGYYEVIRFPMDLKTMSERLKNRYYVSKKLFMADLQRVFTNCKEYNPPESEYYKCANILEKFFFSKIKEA
Protocol: as §1

[7] = target: CBP BRD (Homo sapiens, UniProt Q92793); assay: as above
Protocol: as §1

[8] = tested on: NF-κB; assay: TNFα-induced NF-kB activation, luciferase in NF-kB response element HEK293 cells; assay type: cell-based; conditions: Homo sapiens; NF-κB-response element stabilized HEK293 cells; read-out: IC50, inhibition of TNFα-induced activation of NF-κB
Protocol: FIG. 5. […] A. NF-kB activation by TNFa (10 ng/mL). HEK 293 cells ([…]) in a 24-well plate were stabilized with NF-kB response element (NF-kB_RE) was treated with TNF. Twenty-four hours after the treatment, the cells were harvested and lysed, and luciferase activity was determined.
Dysregulation of macrophages and T cell functions trigger inflammatory responses contributing to IBD progression. Given its pro-inflammatory functions, NF-κB inhibition has anti-inflammatory effects, as shown by inhibition of IKK activity, which prevents phoshorylation and release of IκBα from NF-κB.

[9] = tested on: melanocytes; assay: Proliferation of normal melanocytes; assay type: cell-based; conditions: in vitro; FIG. 6
[10] = Table 1, read-out: Binding Affinity, Kd BRD4-1
[11] = Table 4, read-out: BrD4-1 (μM), bromodomain binding
[12] = Table 1, read-out: Binding Affinity, Kd BRD4-2
[13] = Table 4, read-out: BrD4-2 (μM), bromodomain binding
[14] = Table 4, read-out: PCAF (μM), bromodomain binding
[15] = Table 4, read-out: CBP (μM), bromodomain binding

Sequence of CBP BRD (Q92793 1085-1192 limits assumed): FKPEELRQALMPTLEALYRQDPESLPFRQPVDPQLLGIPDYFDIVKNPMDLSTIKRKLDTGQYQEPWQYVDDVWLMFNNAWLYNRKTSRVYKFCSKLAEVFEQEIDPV

Molecule: Cc1cc(O)cc(C)c1/N=N/c1cc(Cl)c(O)c(S(=O)(=O)O)c1 [MS153]
- inhibition at 50 µM [1]: 39%

Molecule: Cc1cc(/N=N/c2ccc(S(=O)(=O)O)cc2)c(C)cc1O [MS101, 4-(4-hydroxy-2,5-dimethyl-phenylazo)-benzenesulfonic acid]
- Ability to inhibit p53-dependent p21 luciferase activity / p21 expression (SAR, words) [1]: marked increase
- inhibition at 50 µM [1]: 82.9%

- Kd [2, 10]: 2.1 µM
- Kd [2, 11]: 2 µM
- Kd [3, 12]: < 1 µM
- Kd [3, 13]: < 1 µM
Molecule: Cc1cc(/C=C/c2ccc(S(=O)(=O)Nc3ccccn3)cc2)c(N)cc1O [CM0000279]
- Inhibition of melanoma cell proliferation [4]: capable of inhibiting melanoma cell proliferation

Molecule: CCCc1cc(N=Nc2cc(S(=O)(=O)O)c(C)cc2C)ccc1O [MS126, 5-(4-hydroxy-3-propyl-phenylazo)-2,4-dimethylbenzenesulfonic acid]
- inhibition at 50 µM [1]: 93.5%

Molecule: Cc1cc(O)cc(C)c1/N=N/c1ccc(S(=O)(=O)O)cc1 [MS100, 4-(4-hydroxy-2,6-dimethyl-phenylazo)-benzenesulfonic acid]
- inhibition at 50 µM [1]: 36.4%

Molecule: CCc1cc(/N=N/c2cc(S(=O)(=O)O)c(C)cc2C)ccc1O [MS124, 5-(3-ethyl-4-hydroxyphenylazo)-2,4-dimethylbenzenesulfonic acid]
- inhibition at 50 µM [1]: 25%

Molecule: Cc1cc(C)c(S(=O)(=O)O)cc1N=Nc1cc(C)c(O)c(C(C)C)c1 [MS129, 5-(4-hydroxy-3-isopropyl-5-methyl-phenylazo)-2,4-dimethylbenzenesulfonic acid]
- inhibition at 50 µM [1]: 44.6%

Molecule: CC(C)c1cc(N=Nc2ccc(S(=O)(=O)O)cc2)cc(C(C)C)c1O [MS105, 4-(4-hydroxy-3,5-diisopropyl-phenylazo)-benzenesulfonic acid]
- Ability to inhibit p53-dependent p21 luciferase activity / p21 expression (SAR, words) [1]: reduced activity
- inhibition at 50 µM [1]: 26.4%

Molecule: Cc1cc(C)c(S(=O)(=O)O)cc1/N=N/c1cc(C)c(O)c(C)c1 [MS109, 5-(3,5-dimethyl-4-hydroxyphenylazo)-2,4-dimethylbenzenesulfonic acid]
- inhibition at 50 µM [1]: 60.1%

Molecule: 5-(4-hydroxy-3,5-isopropyl-phenylazo)-2,4-dimethylbenzenesulfonic acid [MS128]
- % Inhibition (p53 inhibition, p21 luciferase activity) [1]: 47.2%

Molecule: Cc1cc(C)c(S(=O)(=O)O)cc1/N=N/c1c(C)cc(O)cc1C [MS119, 5-(2,6-dimethyl-4-hydroxyphenylazo)-2,4-dimethylbenzenesulfonic acid]
- Prevention of doxorubicin-induced cell cycle arrest (decrease of BRDU incorporation) [5]: prevents a doxorubicin-induced decrease of BRDU incorporation
- Prevention of doxorubicin-induced cell cycle arrest (decrease of BRDU incorporation) ([5]; listed as MS 119): almost completely prevented
- Inhibition of p21 luciferase activity ([1]; U20S cells, FIG. 1A): Dose-dependent inhibition
- inhibition at 50 µM [1]: 54%

Molecule: CCc1cc(/N=N/c2ccc(S(=O)(=O)O)cc2)ccc1O [MS113, 4-(4-hydroxy-3-ethyl-phenylazo)-benzenesulfonic acid]
- Ability to inhibit p53-dependent p21 luciferase activity / p21 expression (SAR, words) [1]: reduced activity
- inhibition at 50 µM [1]: 25.7%

Molecule: CCC(=O)c1cc(N=Nc2cc(S(=O)(=O)O)c(C)cc2C)ccc1O [MS127, 5-(4-hydroxyphenylazo-3-(1-propanone))-2,4-dimethylbenzenesulfonic acid]
- % Inhibition (p53 inhibition, p21 luciferase activity) [1]: 86.8%

Molecule: Cc1cc(/N=N/c2ccc(S(=O)(=O)O)cc2)ccc1O [MS450]
- Ability to inhibit p53-dependent p21 luciferase activity / p21 expression (SAR, words) [1]: marked increase
- inhibition at 50 µM [1]: 85.6%

- Kd [2, 10]: 1.5 µM
- Kd [3, 12]: < 1 µM
Molecule: Cc1cc(/C=C/c2ccc(S(=O)(=O)Nc3ccccn3)cc2)c(NC(=O)OC(C)(C)C)cc1O [CM0000278]

Molecule: COc1cccc2c1C(=O)c1c(O)c3c(c(O)c1C2=O)C[C@@](O)(C(=O)CO)C[C@@H]3O[C@H]1C[C@H](N)[C@H](O)[C@H](C)O1 [doxorubicin, reference compound]
- Decrease of BRDU incorporation ([5]; doxorubicin treatment of U20S cells): 45%

Molecule: Cc1cc(C)c(S(=O)(=O)O)cc1/N=N/c1ccc(O)c(Cl)c1 [MS131, 5-(3-chloro-4-hydroxyphenylazo)-2,4-dimethylbenzenesulfonic acid]
- inhibition at 50 µM [1]: 49.7%

- Kd [2, 10]: < 1 µM
- Kd [2, 11]: < 1 µM
- Kd [3, 12]: < 1 µM
- Kd [3, 13]: < 1 µM
- Kd ([6]; Table 1, read-out: Binding Affinity, Kd PCAF): < 1 µM
- Kd [6, 14]: < 1 µM
- Kd ([7]; Table 1, read-out: Binding Affinity, Kd CBP): 32.8 µM
- Kd [7, 15]: 33 µM
Molecule: Cc1cc(/C=C/c2ccc(S(=O)(=O)Nc3ccccn3)cc2)cc(C)c1O [CM0000255]
- Inhibition of melanoma cell proliferation [4]: capable of inhibiting melanoma cell proliferation

- Kd [2, 11]: 1.3 µM
- Kd [3, 13]: 2.4 µM
- Kd [6, 14]: 4.5 µM
- Kd [7, 15]: > 100 µM
Molecule: Cc1cc(/N=N/c2ccc(S(=O)(=O)Nc3ccccn3)cc2)cc(C)c1O [MS0129435]

Molecule: Cc1cc(O)c(N)cc1/N=N/c1cc(S(=O)(=O)O)c(C)cc1C [MS135]
- inhibition at 50 µM [1]: 54.8%

Molecule: Cc1cc(C)c(S(=O)(=O)O)cc1/N=N/c1cc(C)c(O)c(C)c1C [MS146, 5-(2,3,5-trimethyl-4-hydroxyphenylazo)-2,4-dimethylbenzenesulfonic acid]
- inhibition at 50 µM [1]: 30.8%

- Kd [2, 11]: 54 µM
- Kd ([2]; Table 5, read-out: BrD4-1): 54 µM
- Kd [3, 13]: 54 µM
- Kd [6, 14]: 88 µM
- Kd ([6]; Table 5, read-out: PCAF): 88 µM
- Kd [7, 15]: 82 µM
- Kd ([7]; Table 5, read-out: CBP): 82 µM
- IC50 [8]: 0.22 µM
Molecule: O=C(O)c1cc(/N=N/c2ccc(S(=O)(=O)Nc3ccccn3)cc2)ccc1O [Sulfasalazine (MS0123028), Sulfasalazine, reference compound]

Molecule: Cc1cc(/N=N/c2ccc(S(=O)(=O)O)cc2)cc(C)c1O [MS451]
- Ability to inhibit p53-dependent p21 luciferase activity / p21 expression (SAR, words) [1]: marked increase
- inhibition at 50 µM [1]: 87.4%

Molecule: Cc1cc(/N=N/c2ccc(S(=O)(=O)O)cc2)c(C)c(C)c1O [MS103, 4-(4-hydroxy-2,3,5-trimethyl-phenylazo)-benzenesulfonic acid]
- inhibition at 50 µM [1]: 38.9%

Molecule: 5-(4-hydroxy-3-methyl-5-propene-phenylazo)-2,4-methylbenzenesulfonic acid [MS130]
- % Inhibition (p53 inhibition, p21 luciferase activity) [1]: 40.4%

- Kd [2, 10]: < 1 µM
- Kd [3, 12]: 1.6 µM
Molecule: Cc1cc(C#Cc2ccc(S(=O)(=O)Nc3ccccn3)cc2)cc(C)c1O [CM0000254]

- Kd ([2]; Table 5, read-out: BrD4-1): 4.5 µM
- Kd ([3]; Table 5, read-out: BrD4-2): 21 µM
- Kd ([6]; Table 5, read-out: PCAF): > 100 µM
- Kd ([7]; Table 5, read-out: CBP): > 100 µM
- IC50 [8]: 0.057 µM
Molecule: Cc1cc(NNc2ccc(S(=O)(=O)NCc3ccc(C(F)(F)F)cc3)cc2)c(N)cc1O [MS0129433]

Molecule: Cc1cc(N=Nc2ccc(S(=O)(=O)O)cc2)cc(C(C)(C)C)c1O [MS111, 4-(4-hydroxy-3-t-butyl-5-methyl-phenylazo)-benzenesulfonic acid]
- Ability to inhibit p53-dependent p21 luciferase activity / p21 expression (SAR, words) [1]: reduced activity
- inhibition at 50 µM [1]: 22.8%

Molecule: Cc1cc(/N=N/c2cc(S(=O)(=O)O)c(C)cc2C)c(C)cc1O [MS118]
- inhibition at 50 µM [1]: 49.7%

- Kd [6, 14]: 6.8 µM
- Kd ([6]; Table 5, read-out: PCAF): 8.6 µM
- Kd [7, 15]: 14 µM
- Kd ([7]; Table 5, read-out: CBP): 14 µM
- IC50 [8]: 0.057 µM
Molecule: Cc1cc(/N=N/c2ccc(S(=O)(=O)Nc3ccccn3)cc2)c(N)cc1O [MS0129436]
- Inhibition of melanoma cell proliferation [4]: inhibits proliferation
- Effect on normal melanocytes [9]: no effect
